This is an account of results in PubChem BioAssay (NCI).

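Tested at 5 concentrations; 48 h exposure; 96-well plates; endpoints linearly interpolated, else capped at highest concentration. GI50 is the concentration that inhibits growth by half. TGI marks complete inhibition of growth.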

Test systems include HCT-15 colon; KM12 colon; SF-295 CNS; TK-10 renal; OVCAR-8 ovarian; RPMI-8226 leukemia; NCI-H522 lung; MCF7 breast; NCI-H460 lung; HOP-62 NSCLC.
Common to all, as to assay: NCI anticancer screen, dose series, 48 h

Regarding `c1ccc(-c2nc(-c3ccccn3)nc(-c3ccccn3)n2)nc1`, the GI50 with HCT-15 colon is 5.71 µM; in the assay with KM12 colon, 32.4 µM; in the assay on SF-295 CNS, 21.2 µM; in the assay with TK-10 renal it was 45.5 µM; in the assay on OVCAR-8 ovarian it was 21.3 µM; in the assay with RPMI-8226 leukemia it was 18.3 µM. For the same compound, the GI50 was 21.6 µM in the assay on NCI-H522 lung, 29.6 µM in the assay on MCF7 breast, 12.1 µM in the assay with NCI-H460 lung and 30.4 µM in the assay on HOP-62 NSCLC. For the same compound, the TGI in the assay with HCT-15 colon, in the assay on KM12 colon, in the assay with SF-295 CNS, with TK-10 renal, with OVCAR-8 ovarian and with RPMI-8226 leukemia was more than 100 µM in each case. Moreover, the TGI with NCI-H522 lung was 81.8 µM; with MCF7 breast it was more than 100 µM; in the assay on NCI-H460 lung, more than 100 µM; in the assay with HOP-62 NSCLC, more than 100 µM.
Regarding `COc1cc(C)ccc1C(=O)c1ccc(C)cc1OC`, the GI50 is 1.1 µM in the assay with HCT-15 colon; 0.926 µM in the assay with KM12 colon; 1.95 µM in the assay with SF-295 CNS; 9.15 µM in the assay with TK-10 renal; 4.89 µM with OVCAR-8 ovarian; 3.7 µM in the assay with RPMI-8226 leukemia. In addition, the GI50 in the assay with NCI-H522 lung was 1.76 µM; in the assay on MCF7 breast, 0.92 µM; in the assay with NCI-H460 lung it was 3.39 µM; in the assay with HOP-62 NSCLC, 3.11 µM. In addition, the TGI in the assay on HCT-15 colon was more than 100 µM; with KM12 colon it was more than 100 µM; in the assay on SF-295 CNS, 43.4 µM; in the assay with TK-10 renal it was more than 100 µM; with OVCAR-8 ovarian, more than 100 µM; in the assay on RPMI-8226 leukemia, 27.7 µM. For the same compound, the TGI is 4.96 µM with NCI-H522 lung, more than 100 µM in the assay on MCF7 breast, more than 100 µM in the assay with NCI-H460 lung and more than 100 µM with HOP-62 NSCLC.
As for `C/C(CC(O)(C(F)(F)F)C(F)(F)F)=N\NC(N)=O`, the TGI with HCT-15 colon, with KM12 colon, in the assay on SF-295 CNS, with TK-10 renal, in the assay with OVCAR-8 ovarian and in the assay on RPMI-8226 leukemia was more than 10 µM each time. For the same compound, the TGI in the assay on NCI-H522 lung, in the assay with MCF7 breast, with NCI-H460 lung and in the assay with HOP-62 NSCLC was more than 10 µM in each case.
For `O=C(NCC1CC1)c1ccc(-c2cccc(C(=O)NC3CC3)c2)cc1`, the GI50 in the assay with HCT-15 colon, in the assay with KM12 colon, in the assay on SF-295 CNS, in the assay with TK-10 renal, in the assay on OVCAR-8 ovarian and with RPMI-8226 leukemia was more than 25 µM in each case. In addition, the GI50 in the assay on NCI-H522 lung, in the assay on MCF7 breast, in the assay on NCI-H460 lung and in the assay on HOP-62 NSCLC was more than 25 µM each time. In addition, the TGI with HCT-15 colon, in the assay on KM12 colon, in the assay with SF-295 CNS, in the assay on TK-10 renal, with OVCAR-8 ovarian and in the assay with RPMI-8226 leukemia was more than 25 µM throughout. Also, the TGI in the assay on NCI-H522 lung, in the assay with MCF7 breast, in the assay on NCI-H460 lung and in the assay on HOP-62 NSCLC was more than 25 µM throughout.
As to `CC(C)=CCN1c2ccccc2NC(=O)CC1C` (stereo not given), the TGI in the assay on HCT-15 colon, in the assay with KM12 colon, in the assay with SF-295 CNS, in the assay with TK-10 renal, with OVCAR-8 ovarian and in the assay on RPMI-8226 leukemia was more than 100 µM throughout. Also, the TGI with NCI-H522 lung, in the assay on MCF7 breast, with NCI-H460 lung and in the assay with HOP-62 NSCLC was more than 100 µM each time.
Regarding `COc1ccc(C2=Nn3c(nnc3-c3cc(Cl)cc(Cl)c3Cl)SC2)cc1`, the GI50 in the assay with HCT-15 colon was 0.52 µM; with KM12 colon, 0.384 µM; with SF-295 CNS it was 0.0576 µM; in the assay on TK-10 renal, 2.26 µM; in the assay with OVCAR-8 ovarian, 0.862 µM; in the assay on RPMI-8226 leukemia, 0.627 µM. Besides, the GI50 in the assay on NCI-H522 lung is 0.256 µM; in the assay on MCF7 breast, 0.326 µM; in the assay with NCI-H460 lung, 0.502 µM; with HOP-62 NSCLC it was 0.478 µM. Moreover, the TGI is more than 100 µM in the assay on HCT-15 colon; 8.89 µM with KM12 colon; 1.4 µM in the assay on SF-295 CNS; more than 53.9 µM in the assay with TK-10 renal; more than 40.7 µM in the assay on OVCAR-8 ovarian; more than 100 µM in the assay with RPMI-8226 leukemia. Also, the TGI in the assay on NCI-H522 lung was 2.51 µM; with MCF7 breast it was more than 100 µM; with NCI-H460 lung it was more than 100 µM; in the assay on HOP-62 NSCLC it was more than 36.2 µM.
Turning to `CO/N=C(\COc1ccc2c(c1)[nH]c1ccccc12)c1ccc(OC)cc1`, the GI50 in the assay with HCT-15 colon is more than 100 µM; in the assay on KM12 colon, more than 100 µM; in the assay on SF-295 CNS, 13.6 µM; in the assay with TK-10 renal, 13.6 µM; with OVCAR-8 ovarian, 5.84 µM; in the assay with RPMI-8226 leukemia, more than 100 µM. Further, the GI50 in the assay with NCI-H522 lung is 49.1 µM; with MCF7 breast, 49.8 µM; with NCI-H460 lung, 21.8 µM; in the assay on HOP-62 NSCLC, 6.26 µM. Also, the TGI was more than 100 µM in the assay on HCT-15 colon; more than 100 µM in the assay on KM12 colon; 99.2 µM in the assay on SF-295 CNS; 66.7 µM with TK-10 renal; 27.5 µM in the assay with OVCAR-8 ovarian; more than 100 µM in the assay with RPMI-8226 leukemia. Further, the TGI was more than 100 µM with NCI-H522 lung, more than 100 µM with MCF7 breast, more than 100 µM with NCI-H460 lung and 64 µM with HOP-62 NSCLC.
With `O=C(O)c1nc(NCc2nc3cc(Cl)ccc3o2)n[nH]1`, the GI50 in the assay with HCT-15 colon, in the assay on KM12 colon, in the assay with SF-295 CNS, in the assay with TK-10 renal, with OVCAR-8 ovarian and in the assay on RPMI-8226 leukemia was more than 100 µM throughout. Besides, the GI50 in the assay with NCI-H522 lung, with MCF7 breast, with NCI-H460 lung and in the assay with HOP-62 NSCLC was more than 100 µM in each case. The TGI with HCT-15 colon, with KM12 colon, with SF-295 CNS, in the assay with TK-10 renal, in the assay on OVCAR-8 ovarian and in the assay with RPMI-8226 leukemia was more than 100 µM throughout. The TGI in the assay with NCI-H522 lung, with MCF7 breast, in the assay on NCI-H460 lung and in the assay on HOP-62 NSCLC was more than 100 µM throughout.
